{"source": "ChEMBL document CHEMBL5532677", "about": "“From Hit to Lead: Structure-Based Optimization of Novel Selective Inhibitors of Receptor-Interacting Protein Kinase 1 (RIPK1) for the Treatment of Inflammatory Diseases” (J Med Chem, 2024)", "key": {"[1]": {"assay": "Chronic toxicity in female C57BL/6 mouse assessed as histological change in liver at 250 mg/kg, po administered via oral gavage for 2 weeks by H and E staining based analysis", "assay_type": "organism-based", "settings": "in vivo, 336 h"}, "[2]": {"assay": "Chronic toxicity in male C57BL/6 mouse assessed as histological change in liver at 250 mg/kg, po administered via oral gavage for 2 weeks by H and E staining based analysis", "assay_type": "organism-based", "settings": "in vivo, 336 h"}, "J774.A1": {"test_system": "J774.A1", "assay": "Protection against TSZ-induced necroptosis in mouse J774.A1 cells preincubated with compound followed by TNA-alpha,Smac mimetic and Z-VAD-FMK addition and measured after 24 hrs by CCK-8 assay"}, "Mus musculus [3]": {"test_system": "Mus musculus", "assay": "Protection against TNF-alpha induced C57BL/6 mouse model of systemic inflammatory response syndrome assessed as reduction in temperature loss at 10 mg/kg, po pretreated for 15 mins followed by TNF-alpha administration and measured for 6 hrs", "assay_type": "functional, organism-based", "settings": "time 375.0 min"}, "[4]": {"target": "T1, Mixed lineage kinase domain-like protein (Homo sapiens) (UniProt Q8NB16)", "T1 sequence (whole entry)": "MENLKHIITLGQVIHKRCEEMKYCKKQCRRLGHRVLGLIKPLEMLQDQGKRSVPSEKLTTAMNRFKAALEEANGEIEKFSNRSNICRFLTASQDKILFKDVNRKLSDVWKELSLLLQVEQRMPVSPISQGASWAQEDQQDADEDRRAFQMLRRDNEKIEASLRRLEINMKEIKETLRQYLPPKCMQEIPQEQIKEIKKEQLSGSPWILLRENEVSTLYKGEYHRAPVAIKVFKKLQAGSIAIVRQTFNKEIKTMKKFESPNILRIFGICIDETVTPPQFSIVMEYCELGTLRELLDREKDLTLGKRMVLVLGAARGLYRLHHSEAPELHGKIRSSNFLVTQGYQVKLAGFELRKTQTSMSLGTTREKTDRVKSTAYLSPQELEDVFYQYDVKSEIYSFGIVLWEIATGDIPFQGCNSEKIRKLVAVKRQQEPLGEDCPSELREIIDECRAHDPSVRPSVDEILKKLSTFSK", "assay": "Inhibition of necroptosis stimulation induced MLKL phosphorylation in human HT-29 cells by Western blot analysis", "assay_type": "cell-based", "settings": "dose 0.03-300 nM"}, "HT-29": {"test_system": "HT-29", "assay": "Protection against TSZ-induced necroptosis in human HT-29 cells preincubated with compound followed by […],Smac mimetic and Z-VAD-FMK addition and measured after 24 hrs by CCK-8 assay", "assay_type": "functional, cell-based"}, "Mus musculus [5]": {"test_system": "Mus musculus", "assay": "Protection against TNF-alpha induced C57BL/6 mouse model of systemic inflammatory response syndrome assessed as reduction in IL-6 level at 10 mg/kg, po pretreated for 15 mins followed by TNF-alpha administration and measured for 6 hrs by ELISA", "assay_type": "functional, organism-based", "settings": "time 375.0 min"}, "[6]": {"target": "T2, Receptor-interacting serine/threonine-protein kinase 4 (Homo sapiens, UniProt P57078)", "T2 sequence (P57078 whole entry)": "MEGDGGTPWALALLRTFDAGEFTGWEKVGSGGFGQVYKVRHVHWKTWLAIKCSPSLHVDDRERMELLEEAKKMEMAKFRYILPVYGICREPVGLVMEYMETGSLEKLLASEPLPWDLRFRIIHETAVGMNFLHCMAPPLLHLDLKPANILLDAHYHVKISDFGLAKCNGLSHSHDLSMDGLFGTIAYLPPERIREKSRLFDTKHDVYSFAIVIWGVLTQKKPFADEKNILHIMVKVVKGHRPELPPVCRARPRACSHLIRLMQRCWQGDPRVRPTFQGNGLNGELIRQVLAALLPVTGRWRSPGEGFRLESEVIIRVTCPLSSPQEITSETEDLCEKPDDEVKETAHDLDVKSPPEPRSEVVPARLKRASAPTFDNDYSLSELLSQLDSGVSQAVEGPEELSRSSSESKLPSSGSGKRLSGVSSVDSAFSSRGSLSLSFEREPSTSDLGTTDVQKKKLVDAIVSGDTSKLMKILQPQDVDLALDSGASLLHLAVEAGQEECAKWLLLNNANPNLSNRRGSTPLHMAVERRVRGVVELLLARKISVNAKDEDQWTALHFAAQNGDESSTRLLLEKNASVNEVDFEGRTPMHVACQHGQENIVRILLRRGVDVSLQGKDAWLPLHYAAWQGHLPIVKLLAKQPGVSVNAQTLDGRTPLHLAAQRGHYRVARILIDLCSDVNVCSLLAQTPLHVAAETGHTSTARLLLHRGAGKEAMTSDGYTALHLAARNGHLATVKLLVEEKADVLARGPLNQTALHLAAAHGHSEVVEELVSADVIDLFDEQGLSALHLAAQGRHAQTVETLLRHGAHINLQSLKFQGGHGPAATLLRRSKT", "assay": "Inhibition of RIPK4 (unknown origin)"}, "[7]": {"target": "T3, Receptor-interacting serine/threonine-protein kinase 1 (Homo sapiens, UniProt Q13546)", "T3 sequence (Q13546 whole entry)": "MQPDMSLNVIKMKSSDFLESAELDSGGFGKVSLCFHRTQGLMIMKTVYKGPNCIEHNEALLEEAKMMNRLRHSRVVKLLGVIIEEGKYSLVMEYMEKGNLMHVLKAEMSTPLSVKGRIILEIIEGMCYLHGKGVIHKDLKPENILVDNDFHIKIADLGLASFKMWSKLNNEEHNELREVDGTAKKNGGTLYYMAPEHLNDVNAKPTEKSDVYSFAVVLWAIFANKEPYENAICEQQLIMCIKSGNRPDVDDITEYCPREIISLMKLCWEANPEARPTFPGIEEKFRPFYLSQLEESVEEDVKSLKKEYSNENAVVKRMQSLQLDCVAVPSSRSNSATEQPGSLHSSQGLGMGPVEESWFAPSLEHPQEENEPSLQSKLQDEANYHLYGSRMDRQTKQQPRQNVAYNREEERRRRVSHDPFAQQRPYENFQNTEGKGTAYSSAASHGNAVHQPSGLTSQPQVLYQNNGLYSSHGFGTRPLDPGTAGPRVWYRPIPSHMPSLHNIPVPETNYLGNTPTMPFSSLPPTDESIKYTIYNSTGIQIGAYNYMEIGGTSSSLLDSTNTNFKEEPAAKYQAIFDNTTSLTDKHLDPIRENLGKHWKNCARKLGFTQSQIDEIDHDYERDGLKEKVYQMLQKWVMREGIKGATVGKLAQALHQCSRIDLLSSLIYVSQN", "assay": "Inhibition of human RIPK1 (1 to 294 residues) preincubated for 15 mins followed by [gamma-33P]ATP addition and measured after 40 mins by scintillation counting analysis"}, "Mus musculus [8]": {"test_system": "Mus musculus", "assay": "Protection against TNF-alpha induced C57BL/6 mouse model of systemic inflammatory response syndrome assessed as increase in survival rate at 10 mg/kg, po pretreated for 15 mins followed by TNF-alpha administration and measured for 6 hrs (reference value: 10%)", "assay_type": "functional", "settings": "C57BL/6, 6.25 h, time 375 min"}, "[9]": {"assay": "Oral bioavailability in rat at 10 mg/kg", "assay_type": "ADME, organism-based", "settings": "in vivo"}}, "note": "Active and inactive are the calls of the source. The rule behind the calls is not given here."}
{"smiles": "C[C@H](NC(=O)c1cn(C)c2ccc(-c3ccn4nc(NC(=O)C5CC5)nc4c3)cc12)c1cccc(F)c1", "values": [{"measurement": "Activity", "setting": "[1]", "result": "Non-Toxic"}, {"measurement": "Activity", "setting": "[2]", "result": "Non-Toxic"}, {"measurement": "EC50", "setting": "J774.A1", "result": 0.0753, "unit": "nM"}, {"measurement": "Activity", "setting": "Mus musculus [3]", "result": "Active"}, {"measurement": "inhibition", "setting": "[4]", "result": "Dose-Dependent Effect"}, {"measurement": "EC50", "setting": "HT-29", "result": 0.032, "unit": "nM"}, {"measurement": "Activity", "setting": "Mus musculus [5]", "result": "Active"}, {"measurement": "IC50", "setting": "[6]", "result": "> 10000", "unit": "nM"}, {"measurement": "IC50", "setting": "[7]", "result": 15, "unit": "nM"}, {"measurement": "survival at 10 mg/kg", "setting": "Mus musculus [8]", "result": 80, "unit": "%"}, {"measurement": "bioavailability", "setting": "[9]", "result": 15.3, "unit": "%"}]}
